Values quoted from earlier work as cited in patent US8828946B2, “Composition comprising interleukin-1 receptor antagonist and corticosteroid” (Orthogen AG, priority 2009, dated 2014).

Columns and labels:
[1] = tested on: moderate rhizarthrosis ri; details: Case II; injections in the past (patient history)
[2] = tested on: moderate knee osteoarthritis ab degree II-III; details: Case III; injections into the knee in the past (patient history)
impingement le shoulder = details: Case IV; previous injections (patient history)
[3] = tested on: medial knee osteoarthritis ri degree IV and retropatellar; details: Case V; injections in the past (patient history)
low facet arthrosis = details: Case VII; in-patient injections into the low facets (patient history)
[4] = tested on: partial rotator cuff rupture and subacromial constriction with complete shoulder stiffness le; details: Case IX; numerous injections into the left shoulder (patient history)

Molecule | effect in the treatment of osteoarthritis and degenerative spinal diseases (osteoarthritis; Anakinra alone) | effect in the treatment of osteoarthritis (osteoarthritis; alone, compared to a placebo treatment) | outcome of previous treatment [1] | outcome of previous treatment [2] | outcome of previous treatment (impingement le shoulder) | outcome of previous treatment [3] | outcome of previous treatment (low facet arthrosis) | outcome of previous treatment [4]
Anakinra | does not show any effect | did not show any effects | – | – | – | – | – | –
C[C@]12CCC(=O)C=C1CC[C@@H]1[C@@H]2C(=O)C[C@@]2(C)[C@H]1CC[C@]2(O)C(=O)CO [cortisone] | – | – | without success | unsuccessful | without success | without clinical success | without success | without success
hyaluronic acid | – | – | – | unsuccessful | – | without clinical success | – | –
